These results are taken from ChEMBL document CHEMBL1155767, “Three new sesquiterpene glycosides from Dendrobium nobile with immunomodulatory activity” (2001).

Assay type in all cases: functional
Assay [1] has as its system Lymphocyte. Description: Immunomodulatory activity in LPS-stimulated mouse lymphocytes assessed as proliferative optical density at 0.1 uM after 48 hrs by MTT assay (Rvb=0.45+/-0.01). A general note: Formazan colour is commonly taken as a measure of viable cells.
Assay [2] concerns Lymphocyte. Description: Immunomodulatory activity in LPS-stimulated mouse lymphocytes assessed as proliferative optical density at 10 uM after 48 hrs by MTT assay (Rvb=0.45+/-0.01).
Assay [3] concerns Lymphocyte. Description: Immunomodulatory activity in concanavalin A-stimulated mouse lymphocytes assessed as proliferative optical density at 1 uM after 48 hrs by MTT assay (Rvb=0.47+/-0.01).
Assay [4] relates to Lymphocyte. Description: Immunomodulatory activity in concanavalin A-stimulated mouse lymphocytes assessed as proliferative optical density at 10 uM after 48 hrs by MTT assay (Rvb=0.47+/-0.01).
The subject of assay [5] is Lymphocyte. Description: Immunomodulatory activity in concanavalin A-stimulated mouse lymphocytes assessed as proliferative optical density at 0.1 uM after 48 hrs by MTT assay (Rvb=0.47+/-0.01).
Assay [6] has as its system Lymphocyte. Description: Immunomodulatory activity in LPS-stimulated mouse lymphocytes assessed as proliferative optical density at 1 uM after 48 hrs by MTT assay (Rvb=0.45+/-0.01).
The test system of assay [7] is Lymphocyte. Nature of the assay: Immunomodulatory activity in concanavalin A-stimulated mouse lymphocytes assessed as proliferative optical density at 10 uM after 48 hrs by MTT assay (Rvb=0.80+/-0.02).
The subject of assay [8] is Lymphocyte. Nature of the assay: Immunomodulatory activity in LPS-stimulated mouse lymphocytes assessed as proliferative optical density at 1 uM after 48 hrs by MTT assay (Rvb=0.56+/-0.03).
In assay [9] the test system is Lymphocyte. Nature of the assay: Immunomodulatory activity in LPS-stimulated mouse lymphocytes assessed as proliferative optical density at 0.1 uM after 48 hrs by MTT assay (Rvb=0.56+/-0.03).
Assay [10] has as its system Lymphocyte. Nature of the assay: Immunomodulatory activity in concanavalin A-stimulated mouse lymphocytes assessed as proliferative optical density at 0.1 uM after 48 hrs by MTT assay (Rvb=0.80+/-0.02).
For assay [11], the system named is Lymphocyte. Nature of the assay: Immunomodulatory activity in concanavalin A-stimulated mouse lymphocytes assessed as proliferative optical density at 1 uM after 48 hrs by MTT assay (Rvb=0.80+/-0.02).
Assay [12] has as its system Lymphocyte. Nature of the assay: Immunomodulatory activity in LPS-stimulated mouse lymphocytes assessed as proliferative optical density at 10 uM after 48 hrs by MTT assay (Rvb=0.56+/-0.03).

Each structure is given as a SMILES string.

As to `CC(C)[C@H]1CC[C@]2(C)[C@@H](CO[C@@H]3O[C@H](CO)[C@@H](O)[C@H](O)[C@H]3O)CC[C@@H]2[C@@H]1CO[C@@H]1O[C@H](CO)[C@@H](O)[C@H](O)[C@H]1O` [DENDRONOBILOSIDE A], the OD in the assay with Lymphocyte [1] came to 0.49; in the assay with Lymphocyte [2] it was 0.56; in the assay with Lymphocyte [3] it was 0.53; with Lymphocyte [4], 0.6; in the assay on Lymphocyte [5] it was 0.46; with Lymphocyte [6], 0.5.
For `CC(C)[C@H]1CC[C@@]2(C)[C@H](CC[C@]2(O)CO)[C@@H]1CO[C@@H]1O[C@H](CO)[C@@H](O)[C@H](O)[C@H]1O` [DENDRONOBILOSIDE B], the OD with Lymphocyte [7] is recorded as 0.71; with Lymphocyte [8], 0.51; in the assay on Lymphocyte [9] it was 0.54; in the assay with Lymphocyte [10], 0.68; with Lymphocyte [11], 0.68; in the assay on Lymphocyte [12], 0.57.
`C[C@@H]1CC[C@H]2[C@@H]1[C@H]1[C@@H](CC[C@@]2(O)CO[C@@H]2O[C@H](CO)[C@@H](O)[C@H](O)[C@H]2O)[C@@]1(C)CO` [DENDROSIDE A]: the OD in the assay with Lymphocyte [1] is 0.45; in the assay with Lymphocyte [2], 0.45; in the assay with Lymphocyte [3] it was 0.62; in the assay on Lymphocyte [4], 0.5; in the assay with Lymphocyte [5], 0.64; in the assay with Lymphocyte [6], 0.52.
